# Results: US20100048728A1, “POLYCYCLIC DIANTHRAQUINONES AS INHIBITORS OF INFLAMMATORY CYTOKINES” (HY BIOPHARMA INC., priority 2006, published 2010)
# Legend:
# [1] = system: acute IBD generated in BALB/C mice by DSS; assay: DSS-induced acute inflammatory bowel disease (IBD) in mice, colon length; assay type: in vivo
# Method: 36 male BABL/c mice anesthetized with Ketamine & Xylazine, are divided into six groups: • Control • Dextran sulfate sodium salt (DSS) alone −8000 MW • DSS with Hypericin 25 μg/animal • DSS with Hypericin 75 μg/animal • Hypericin 25 μg/animal • Hypericin 75 μg/animal
# Acute IBD was generated in BALB/C mice (6 mice per group) by DSS administered via the drinking water (3.5% w/v) for 7 days. Hypericin was administered to these animals intraperitoneally at doses of 25 and 75 μg/mouse beginning 48 hrs prior to initiation of DSS administration and at 48 hr intervals thereafter. After 16 days the mice were sacrificed with high dose of sodium pentobarbital, the gastro-intestinal tract removed, its overall length measured and evaluated compared to control untreated healthy mice.
# [2] = system: Herpes simplex type 1 virus induced skin inflammation; assay: Inflammatory skin reactions induced by Herpes simplex type 1 virus in guinea pig dorsa; details: topical 1.2 or 1.7 μg Hypericin/gr Vaseline, 3× per day for 3 days, evaluated after 96 hrs
# Mouse L cells [3] = assay: Protection from TNFα-induced cell death, Hemacolor assay; assay type: cell-based
# Method: Mouse L cells (ATCC) were cultured in complete MEM medium in 37° C. incubator with 5% CO2 and 95% humidity. The culture cells were divided to 6 separate groups: i. untreated control ii. TNFα25 u/ml iii. TNFα25 u/ml and Hypericin 0.5 μg/ml iv. TNFα25 u/ml and Hypericin 1 μg/ml v. TNFα25 u/ml and Hypericin 5 μg/ml vi. TNFα 25 u/ml and Hypericin 7.5 μg/ml.
# Hypericin was applied to the cells 48 hr prior to TNFα administration. The experiment was terminated 24 hrs after TNF administration and cell viability evaluated using the Hemacolor assay.
# Mouse L cells [4] = assay: Protection from TNFα-induced cell death, MTT assay; assay type: cell-based
# Method: Mouse L cells (ATCC) were cultured in complete MEM medium in 37° C. incubator with 5% CO2 and 95% humidity. The culture cells were divided to […]: i. untreated control ii. Hypericin 0.5 μg/ml iii. Hypericin 1 μg/ml iv. TNFα10 u/ml v. TNFα25 u/ml vi. TNFα10 u/ml and Hypericin 0.5 μg/ml vii. TNFα10 u/ml and Hypericin 1 μg/ml viii. TNFα 25 u/ml and Hypericin 0.5 μg/ml ix. TNFα25 u/ml and Hypericin 1 μg/ml.
# Hypericin was applied to the cells 48 hr prior to TNFα administration. The experiment was terminated 24 hrs after TNF administration and cell viability evaluated by MTT assay.
compound,measurement,setting,value
"Cc1cc(O)c2c(=O)c3c(O)cc(O)c4c5c(O)cc(O)c6c(=O)c7c(O)cc(C)c8c1c2c(c34)c(c78)c65 [Hypericin, hypericin]",colon length,[1]; Hypericin 25 μg/mouse without DSS,did not alter the colon length
same,colon length,"[1]; Hypericin 75 μg/mouse intraperitoneally with 3.5% DSS, after 16 days, DSS alone 8.016 cm, control 12.6 cm, P≦0.039 vs DSS alone",9.067 cm
same,colon length,[1]; Hypericin 75 μg/mouse without DSS,did not alter the colon length
same,inflammatory erythema following infection with herpes virus,[2],significantly inhibited
same,prevention of TNFα induced cell death (Hemacolor),"Mouse L cells [3]; Hypericin 0.5 μg/ml 48 hr before TNFα 25 u/ml, P≦0.0045",prevented cell death significantly
same,prevention of TNFα induced cell death (Hemacolor),"Mouse L cells [3]; Hypericin 1 μg/ml 48 hr before TNFα 25 u/ml, P≦0.00049",prevented cell death significantly
same,prevention of TNFα induced cell death (Hemacolor),"Mouse L cells [3]; Hypericin 5 μg/ml 48 hr before TNFα 25 u/ml, P≦0.00105",prevented cell death significantly
same,prevention of TNFα induced cell death (Hemacolor),"Mouse L cells [3]; Hypericin 7.5 μg/ml 48 hr before TNFα 25 u/ml, P≦0.00159",prevented cell death significantly
same,prevention of TNFα induced cell death (Hemacolor),Mouse L cells [3]; Hypericin 15 μg/ml before TNFα 25 u/ml,did not prevent cell death
same,prevention of TNFα induced cell death (MTT),"Mouse L cells [4]; Hypericin 0.5 μg/ml 48 hr before TNFα 10 u/ml, P≦0.025758",prevented cell death significantly
same,prevention of TNFα induced cell death (MTT),"Mouse L cells [4]; Hypericin 0.5 μg/ml 48 hr before TNFα 25 u/ml, P≦0.023446",prevented cell death significantly
same,prevention of TNFα induced cell death (MTT),"Mouse L cells [4]; Hypericin 1 μg/ml 48 hr before TNFα 10 u/ml, P≦0.014777",prevented cell death significantly
same,prevention of TNFα induced cell death (MTT),"Mouse L cells [4]; Hypericin 1 μg/ml 48 hr before TNFα 25 u/ml, P≦0.047198",prevented cell death significantly
same,cell viability (MTT),"Mouse L cells [4]; Hypericin alone, compared to the control group",did not alter cell viability
